Test results published in patent publication US7378375B1, “Substituted pyridine herbicides” (Syngenta Crop Protection, Inc., priority 2000, dated 2008).

Columns and labels:
[1] = system: Monocotyledonous and dicotyledonous test plants; test: Post-emergence herbicidal action, greenhouse pot test, sprayed at the 2- to 3-leaf stage, 9-level rating after 2 to 3 weeks; type: in vivo; parameters: key: 9-level scale: 1 = complete damage, 9 = no effect; conditions: 250 g/ha, rated after 2 to 3 weeks, 9-level scale
Method: Post-Emergence Herbicidal Action
Monocotyledonous and dicotyledonous test plants are grown in standard soil in pots. At the 2- to 3-leaf stage of the test plants, the test substances are sprayed at optimum dosage (500 l of water/ha) as an aqueous suspension (prepared from a wettable powder (example F3, b) according to WO 97/34485) or emulsion (prepared from an emulsion concentrate (example F1, c) according to WO 97/34485). The test plants are then grown further under optimum conditions in a greenhouse.
After a test period of 2 to 3 weeks, the test is evaluated using a 9-level scale of rating (1=complete damage, 9=no effect). Ratings of 1 to 4 (in particular 1 to 3) mean good to very good herbicidal action.

[2] = system: Monocotyledonous and dicotyledonous test plants; test: Herbicidal action before emergence of the plants (pre-emergence action), greenhouse pot test, 9-level rating after 4 weeks; type: in vivo; parameters: key: 9-level scale: 1 = complete damage, 9 = no effect; conditions: 250 g/ha, rated after 4 weeks, 9-level scale
Method: Herbicidal Action Before Emergence of the Plants (Pre-Emergence Action)
Monocotyledonous and dicotyledonous test plants are sown in standard soil in pots. Immediately after sowing, the test substances are sprayed on at an optimum dosage (500 l of water/ha) as an aqueous suspension (prepared from a wettable powder (example F3, b) according to WO 97/34485) or emulsion (prepared from an emulsion concentrate (example F1, c) according to WO 97/34485). The test plants are then grown under optimum conditions in a greenhouse.
After a test period of 4 weeks, the test is evaluated using a 9-level scale of ratings (1=complete damage, 9=no effect). Ratings of 1 to 4 (in particular 1 to 3) mean good to very good herbicidal action.

SMILES | Post-emergence action rating, Abutilon [1] | Post-emergence action rating, Amaranth [1] | Post-emergence action rating, Chenop. [1] | Post-emergence action rating, Digitaria [1] | Post-emergence action rating, Echino. [1] | Post-emergence action rating, Ipopur. [1] | Post-emergence action rating, Panicum [1] | Post-emergence action rating, Xanth. [1] | Pre-emergence action rating, Abutilon [2] | Pre-emergence action rating, Amaranthus [2] | Pre-emergence action rating, Chenop. [2] | Pre-emergence action rating, Digitaria [2] | Pre-emergence action rating, Echino. [2] | Pre-emergence action rating, Panicum [2]
CCOCCOCc1nc(C(F)(F)F)ccc1C(=O)C1=C(O)C2CCC(C2)C1=O (stereo not shown) [A11-B52] | 2 | 1 | 1 | 1 | 2 | 2 | 1 | 2 | 1 | 2 | 1 | 1 | 1 | 1
O=C(C1=C(O)C2CCC(C2)C1=O)c1ccc(C(F)(F)F)nc1COCC(F)(F)F (stereo not shown) [A834-B52] | 2 | 1 | 1 | 1 | 2 | 2 | 1 | 2 | 1 | 2 | 1 | 1 | 1 | 1
CC(C)OCc1nc(C(F)(F)F)ccc1C(=O)c1cnn(C)c1O [A3-C5] | 3 | 3 | 1 | 4 | 3 | 3 | 3 | 3 | 1 | 1 | – | 2 | 2 | 1
O=C(C1=C(O)C2CCC(C2)C1=O)c1ccc(C(F)(F)F)nc1COCC1CCCO1 (stereo not shown) [A848-B52] | 2 | 1 | 1 | 2 | 2 | 2 | 2 | 2 | 7 | 1 | 1 | 1 | 1 | 1
CCOC(=O)C1(C)CCC(=O)C(C(=O)c2ccc(C(F)(F)F)nc2COCCOC)=C1O (stereo not shown) [A10-B14] | 2 | 2 | 1 | 2 | 3 | 2 | 2 | 2 | 1 | 1 | 1 | 6 | 3 | 3
CCCCCCCC(=O)OCc1nc(C(F)(F)F)ccc1C(=O)C1=C(O)C2CCC(C2)C1=O (stereo not shown) [A843-B52] | 3 | 3 | 1 | 3 | 3 | 6 | 2 | 3 | 1 | 1 | 1 | 2 | 2 | 1
Cn1ncc(C(=O)c2ccc(C(F)(F)F)nc2COCC(F)(F)F)c1O [A834-C5] | – | – | – | – | – | – | – | – | 1 | 2 | – | 3 | 1 | 1
CS(=O)(=O)CCOCc1nc(C(F)(F)F)ccc1C(=O)C1=C(O)C2CCC(C2)C1=O (stereo not shown) [A819-B52] | 2 | 2 | 1 | 3 | 2 | 2 | 2 | 2 | 1 | 2 | 1 | 9 | 7 | 7
COCc1nc(C(F)(F)F)ccc1C(=O)c1c(C)nn(C)c1O [A1-C2] | 3 | 2 | 4 | 8 | 4 | 3 | 7 | 4 | 4 | 3 | 1 | 3 | 3 | 6
O=C(C1=C(O)C2CCC(C2)C1=O)c1ccc(C(F)(F)F)nc1COCC1COCO1 (stereo not shown) [A852-B52] | 3 | 3 | 1 | 4 | 4 | 3 | 3 | 3 | 4 | 1 | 2 | 1 | 1 | 1
COCC(Br)COCc1nc(C(F)(F)F)ccc1C(=O)C1=C(O)C2CCC(C2)C1=O (stereo not shown) [A853-B52] | – | – | – | – | – | – | – | – | 1 | 1 | 2 | 1 | 2 | 1
